Source: patent publication US20090227507A1, “Angiotensin (1-7) Dosage Forms and Uses Thereof” (UNIVERSITY OF SOUTHERN CALIFORNIA, priority 2008, published 2009)

Assays:
[1] = system: CD34+ cells in peripheral blood; experiment: Flow cytometry of peripheral blood, CD34+ progenitor cells; USB003 SC once daily for 7 days in healthy men; assay type: in vivo, human; parameters: key to Subjects with shift, Absolute CD34, N-L (normal to low) / Subjects with shift, Absolute CD34, N-H (normal to high) / Subjects with shift, Absolute CD34, L-N (low to normal) / Subjects with shift, Absolute CD34, H-N (high to normal): — signifies subject with no shift from baseline; conditions: for CD34^+, Absolute, Mean at Baseline: Baseline (Day 1)
Protocol: (§1) • Single-center, randomized, double-blind, placebo-controlled, 2 cohort dose-escalation trial of once daily dosing over a 7-day period (7 doses total): • Cohort 1: 2 subjects treated with placebo and 8 subjects treated with 200 μg/kg USB003 (A(1-7)) • Cohort 2: 2 subjects treated with placebo and 8 subjects treated with 300 μg/kg USB003 • For each cohort, there was a Screening Period, Treatment Phase, Follow-up Period, and Study Termination or Early Withdrawal Day. Subjects were confined to the study unit during the Treatment Phase. • Cohort 2 was treated approximately 1 week after completion of the Treatment Phase for Cohort 1 to allow time for the assessment of safety and tolerability in the first cohort.
(§2) Pharmacological Effect: The following evaluations (under efficacy and safety in the protocol) were performed: • Effects on the number of mature blood cells: • 1. CBC (with differential), platelet count, reticulocyte count. • Effects on early hematopoietic progenitor cells and mature lymphocyte subsets in the periphery: • 1. Flow cytometry to evaluate frequency of peripheral blood progenitor cells (eg, CD34^+) and lymphocyte subsets (eg, CD3, CD4, CD8) in peripheral blood. • 2. Collection of blood for later possible culture for progenitor cells (eg, colony forming units-granulocyte/macrophage [CFU-GM]) to evaluate potential effects on CD34^+ hematopoietic progenitor cells in peripheral blood. • 3.
(§3) The effect of USB003 on the number of mature blood cells was assessed by the complete blood count with differential, platelet and reticulocyte counts. The effects on early hematopoietic progenitor cells and mature lymphocyte subsets in the periphery were assessed by flow cytometry. In addition, blood was collected and processed to enable culture of progenitors at a later time.
(§4) Red blood cell (RBC) count, RBC indices, white blood cell count (WBC) with differential, reticulocyte count, platelet count, hemoglobin (Hb), hematocrit (Hct), plasma hemoglobin, peripheral flow cytometry, including CD34^+, flow cytometry for enumeration of CD3, CD4, and CD8 lymphocytes, and culture for progenitor cells in peripheral blood including colony-forming units-granulocyte/macrophage (CFU-GM).

[2] = system: CD4 cells in peripheral blood; experiment: Flow cytometry of peripheral blood, CD4 lymphocytes; USB003 SC once daily for 7 days in healthy men; assay type: in vivo, human; parameters: key to Subjects with shift, Absolute CD4, N-L (normal to low) / Subjects with shift, Absolute CD4, N-H (normal to high) / Subjects with shift, Absolute CD4, H-N (high to normal) / Subjects with shift, Absolute CD4, L-N (low to normal): — signifies subject with no shift from baseline; conditions: for CD4, Absolute, Mean at Baseline: Baseline (Day 1)
Protocol: as §1, §2, §3, §4

[3] = Urinalysis with microscopic examination of sediment in healthy men; assay type: in vivo, human; conditions: Subject 011, 200 μg/kg
Protocol: (§5) Laboratory measurements were conducted by a local clinical laboratory.
Blood, urobilinogen, ketones, glucose, protein, microscopic examination of sediment, sodium, and potassium.

[4] = Physical examination in healthy men; assay type: in vivo, human; conditions: all dose groups; baseline (Day 1) to Day 20
Source text: On Day −1, subjects who met the eligibility criteria underwent a PE, vital sign measurements, and had samples drawn to evaluate clinical laboratory parameters. On Study Days 1 through 7 for each cohort, subjects received a single SC injection of USB003 at the assigned dose level or placebo. Subjects were kept in the clinic under observation for the entire Day −1 to Day 8 period. Subjects were discharged from the clinic on the morning of Day 8 after all scheduled procedures and a 24-hour urine collection had been completed. Subjects were scheduled to return to the clinic on Days 11, 14, 17, and 20 for hematology measurements and selected safety assessments. Subjects were to be released from the study following a post-study PE on Day 20.
On Day 20 of the study, subjects were to have returned to the clinic for the post-study check and PE. Blood samples for hematology and plasma USB003 were also drawn.
as §5

lymphocyte numbers = experiment: Lymphocyte recovery after subcutaneous TXA127 in subjects without HIV infection (breast cancer subjects receiving chemotherapy); assay type: in vivo; conditions: human subjects without HIV infection (e.g., breast cancer subjects receiving cancer chemotherapy)
Source text: In the absence of effective antiretroviral therapy, HIV disease is characterized by the relentless destruction of CD4+ T-lymphocytes resulting in disordered and declining immune function.

## Asp-Arg-Val-Tyr-Ile-His-Pro [USB003]
[1]; 200 μg/kg
  CD34^+, Absolute, Mean at Baseline: 2.50 cells/μL
[1]; 200 μg/kg, Baseline to Day 8
  Subjects with shift, Absolute CD34, H-N (high to normal): —
  Subjects with shift, Absolute CD34, L-N (low to normal): —
  Subjects with shift, Absolute CD34, N-H (normal to high): —
  Subjects with shift, Absolute CD34, N-L (normal to low): —
[1]; 200 μg/kg, Baseline to Day 20
  Subjects with shift, Absolute CD34, H-N (high to normal): —
  Subjects with shift, Absolute CD34, L-N (low to normal): —
  Subjects with shift, Absolute CD34, N-H (normal to high): —
  Subjects with shift, Absolute CD34, N-L (normal to low): —
[1]; 200 μg/kg, Day 3
  CD34^+, Absolute, Mean Change from Baseline: 0.23 cells/μL
[1]; 200 μg/kg, Day 5
  CD34^+, Absolute, Mean Change from Baseline: 0.61 cells/μL
[1]; 200 μg/kg, Day 7
  CD34^+, Absolute, Mean Change from Baseline: 1.11 cells/μL
[1]; 200 μg/kg, Day 8
  CD34^+, Absolute, Mean Change from Baseline: 0.33 cells/μL
[1]; 200 μg/kg, Day 11
  CD34^+, Absolute, Mean Change from Baseline: 0.13 cells/μL
[1]; 200 μg/kg, Day 14
  CD34^+, Absolute, Mean Change from Baseline: 0.61 cells/μL
[1]; 200 μg/kg, Day 17
  CD34^+, Absolute, Mean Change from Baseline: −0.40 cells/μL
[1]; 200 μg/kg, Day 20
  CD34^+, Absolute, Mean Change from Baseline: −0.46 cells/μL
[1]; 300 μg/kg
  CD34^+, Absolute, Mean at Baseline: 2.55 cells/μL
[1]; 300 μg/kg, Baseline to Day 8
  Subjects with shift, Absolute CD34, H-N (high to normal): —
  Subjects with shift, Absolute CD34, L-N (low to normal): —
  Subjects with shift, Absolute CD34, N-H (normal to high): —
  Subjects with shift, Absolute CD34, N-L (normal to low): —
[1]; 300 μg/kg, Baseline to Day 20
  Subjects with shift, Absolute CD34, H-N (high to normal): —
  Subjects with shift, Absolute CD34, L-N (low to normal): —
  Subjects with shift, Absolute CD34, N-H (normal to high): —
  Subjects with shift, Absolute CD34, N-L (normal to low): —
[1]; 300 μg/kg, Day 3
  CD34^+, Absolute, Mean Change from Baseline: 1.80 cells/μL
[1]; 300 μg/kg, Day 5
  CD34^+, Absolute, Mean Change from Baseline: 0.56 cells/μL
[1]; 300 μg/kg, Day 7
  CD34^+, Absolute, Mean Change from Baseline: −0.01 cells/μL
[1]; 300 μg/kg, Day 8
  CD34^+, Absolute, Mean Change from Baseline: 0.88 cells/μL
[1]; 300 μg/kg, Day 11
  CD34^+, Absolute, Mean Change from Baseline: −0.74 cells/μL
[1]; 300 μg/kg, Day 14
  CD34^+, Absolute, Mean Change from Baseline: −0.41 cells/μL
[1]; 300 μg/kg, Day 17
  CD34^+, Absolute, Mean Change from Baseline: −0.31 cells/μL
[1]; 300 μg/kg, Day 20
  CD34^+, Absolute, Mean Change from Baseline: −0.35 cells/μL
[1]; last day of treatment, not observed 12 days after administration
  change in the number of CD34+ cells in the peripheral blood: dose-related change
[2]; 200 μg/kg
  CD4, Absolute, Mean at Baseline: 1122.6 cells/μL
[2]; 200 μg/kg, Baseline to Day 8
  Subjects with shift, Absolute CD4, H-N (high to normal): 1
  Subjects with shift, Absolute CD4, L-N (low to normal): —
  Subjects with shift, Absolute CD4, N-H (normal to high): —
  Subjects with shift, Absolute CD4, N-L (normal to low): —
[2]; 200 μg/kg, Baseline to Day 20
  Subjects with shift, Absolute CD4, H-N (high to normal): 1
  Subjects with shift, Absolute CD4, L-N (low to normal): —
  Subjects with shift, Absolute CD4, N-H (normal to high): —
  Subjects with shift, Absolute CD4, N-L (normal to low): —
[2]; 200 μg/kg, Day 3
  CD4, Absolute, Mean Change from Baseline: −88.0 cells/μL
[2]; 200 μg/kg, Day 5
  CD4, Absolute, Mean Change from Baseline: 39.5 cells/μL
[2]; 200 μg/kg, Day 7
  CD4, Absolute, Mean Change from Baseline: 53.6 cells/μL
[2]; 200 μg/kg, Day 8
  CD4, Absolute, Mean Change from Baseline: −24.0 cells/μL
[2]; 200 μg/kg, Day 11
  CD4, Absolute, Mean Change from Baseline: 82.5 cells/μL
[2]; 200 μg/kg, Day 14
  CD4, Absolute, Mean Change from Baseline: 12.1 cells/μL
[2]; 200 μg/kg, Day 17
  CD4, Absolute, Mean Change from Baseline: −70.5 cells/μL
[2]; 200 μg/kg, Day 20
  CD4, Absolute, Mean Change from Baseline: −58.0 cells/μL
[2]; 300 μg/kg
  CD4, Absolute, Mean at Baseline: 734.4 cells/μL
[2]; 300 μg/kg, Baseline to Day 8
  Subjects with shift, Absolute CD4, H-N (high to normal): —
  Subjects with shift, Absolute CD4, L-N (low to normal): 1
  Subjects with shift, Absolute CD4, N-H (normal to high): —
  Subjects with shift, Absolute CD4, N-L (normal to low): —
[2]; 300 μg/kg, Baseline to Day 20
  Subjects with shift, Absolute CD4, H-N (high to normal): —
  Subjects with shift, Absolute CD4, L-N (low to normal): —
  Subjects with shift, Absolute CD4, N-H (normal to high): —
  Subjects with shift, Absolute CD4, N-L (normal to low): 1
[2]; 300 μg/kg, Day 3
  CD4, Absolute, Mean Change from Baseline: 109.6 cells/μL
[2]; 300 μg/kg, Day 5
  CD4, Absolute, Mean Change from Baseline: 108.1 cells/μL
[2]; 300 μg/kg, Day 7
  CD4, Absolute, Mean Change from Baseline: 129.3 cells/μL
[2]; 300 μg/kg, Day 8
  CD4, Absolute, Mean Change from Baseline: 31.1 cells/μL
[2]; 300 μg/kg, Day 11
  CD4, Absolute, Mean Change from Baseline: −29.3 cells/μL
[2]; 300 μg/kg, Day 14
  CD4, Absolute, Mean Change from Baseline: 9.7 cells/μL
[2]; 300 μg/kg, Day 17
  CD4, Absolute, Mean Change from Baseline: −40.0 cells/μL
[2]; 300 μg/kg, Day 20
  CD4, Absolute, Mean Change from Baseline: 48.9 cells/μL
[3]; Day 1
  Urine Glucose High/Low Normal/Abnormal: Abnormal
  Urine Glucose Significance: CS AE
  Urine Glucose Value: +1
[3]; Day 3
  Urine Glucose High/Low Normal/Abnormal: N
  Urine Glucose Value: neg
[4]
  PE findings: no changes from baseline
Lymphocyte numbers
  lymphocyte numbers following subcutaneous injection: dramatic recovery of lymphocyte numbers
